A melting point compilation (Tetko et al.; mined from patent text by program, amines drawn as free bases though some values may be those of a salt)
Residues, ends and D or L forms follow the SMILES beside them. *: point of attachment. Boc = CC(C)(C)OC(=O)*

| Structure (SMILES) | melting point [°C] |
| --- | --- |
| Oc1ccc(Cl)cc1CCc1ccccn1 | 135 to 137 |
| CCOCc1nc2c(N)nc3ccccc3c2n1CCCON=C(C)C | 109 to 111 |
| CCOC(CCCN1CCC(NC(=O)c2ccccc2)CC1)OCC | 95 |
| NCCN1CCC(Nc2nc3cccnc3n2Cc2ccccn2)CC1 | 151 |
| CCn1nc(-c2nc(C#N)c(N)nc2-c2ccccc2)ccc1=O | > 250 |
| COC(=O)c1ccc(OCCNC(=O)C2Cc3ccccc3N2S(=O)(=O)c2ccc(-c3cc(C(F)(F)F)ccc3Cl)cc2)cc1C(F)(F)F (stereo not drawn) | 79 |
| Cc1cccc(C(NCC(=O)Nc2c(C(C)C)cccc2C(C)C)c2ccccc2)c1 (stereo not drawn) | 119 to 120 |
| COCc1nnc(NC(=O)C2c3ccccc3Oc3ccccc32)o1 | 113 to 114 |
| CC(C)(C)c1ccc(Cn2cc(C(=O)C(=O)O)c3ccc(-c4ccc(OC(F)(F)F)cc4)cc32)cc1 | 183 to 186 |
| O=C1NCCN(NC(=O)c2cc(OCc3ccccc3)c(OCc3ccccc3)cn2)C1=O | 231 |
| CC(=O)Nc1ncc(Cc2ccc(Cl)cc2)c(N)n1 | 215 |
| CCN(CC)CCN(c1cc(OC)c(C)cc1[N+](=O)[O-])S(=O)(=O)c1ccc(C)cc1 | 114 |
| Cc1ccc(CC2CCN(C(=O)CNc3ccc4c(c3)OCC(=O)N4)CC2)cc1 | 206 to 208 |
| Cc1sc2c(c1C)C(c1ccc(Cl)cc1)=N[C@@H](CC(=O)Nc1ccc(O)cc1)c1nnc(C)n1-2 | 215 to 220 |
| Cc1cc(-c2cc3c(OC[C@@H](O)CN4CCC(c5ccc6ccccc6c5)CC4)cccc3o2)nn1C | 155 to 157 |
| Cc1nc(CC2(C)CCN(c3ccc(F)cc3)CC2)nc(C(=O)NCC(=O)O)c1O | 140 to 141 |
| CS(=O)c1n[nH]c2ccc(Cl)cc2c1=O (stereo not drawn) | 267 to 272 |
| COC(=O)c1ccccc1C1=NC(C)(C(C)C)C(=O)N1Sc1ccccc1[N+](=O)[O-] (stereo not drawn) | 143 to 148 |
| CCNC(=O)c1ccc(N2CCN(Cc3cnc4c(c3)[nH]c(=O)n3cccc43)CC2)cc1 | 252 to 260 |
| O=C(O)c1cn(-c2cnsn2)c2c(F)c(F)c(F)cc2c1=O | 205 to 207 |
| COc1cc(-c2cnc3[nH]c(=O)n(CC4CCCCC4)c3n2)ccn1 | 295 to 297 |
| Cc1cc2nc(-c3ccc(F)cc3)cn2nc1Cl | 196 to 198 |
| CC(NC(=O)CSC(=O)c1ccccc1)C(=O)NCC(=O)NCC(=O)O (stereo not drawn) | 167 to 170 |
| O=C(NCc1ncc(Cl)cc1Cl)c1c(Cl)cccc1Cl | 161 to 165 |

| Structure (SMILES) | melting point [°C] |
| --- | --- |
| CN(CCNc1ccc2c3c(nn2CCN)-c2c(OCc4ccccc4)ccc(OCc4ccccc4)c2C(=O)c13)Cc1ccccc1 | 169 to 172 |
| Nc1ccc(-c2noc(-c3cnn4c(C(F)F)cc(-c5ccc(C(F)(F)F)cc5)nc34)n2)cn1 | 242 |
| COc1ccc(C2(c3ccc(OC)cc3)CCN(CC[C@H]3CN(C)[C@@H]4Cc5c[nH]c6cccc(c56)[C@@]4(OC)C3)CC2)cc1 | 129 to 136 |
| CN1CCN(c2ccc(-c3ccc4c(c3)C=C(C(=O)Nc3ccc(CN(C)C5CCOCC5)cc3)CCO4)cc2)CC1 | 220 to 221 |
| O=[N+]([O-])c1cc(C(c2ccc(Nc3ccccc3)c([N+](=O)[O-])c2)(C(F)(F)F)C(F)(F)F)ccc1Nc1ccccc1 | 165 to 166 |
| CCOC(=O)c1ncn2c1cc(-c1ccccc1)c1ccccc12 | 176 to 185 |
| c1cncc(CC[C@H]2CNCCN2)c1 | 104 to 110 |
| O=C(c1ccc(Cl)cc1)c1ccc2[nH]c(=O)nc(-c3cccc(Cl)c3)c2c1 | 256 |
| CN1CCN(Cc2ccc(C(=O)Nc3ccc(CO)c(Nc4nccc(-c5cccnc5)n4)c3)cc2)CC1 | 196 to 198 |
| O=S(=O)(c1ccccc1)c1c[nH]c2ncccc12 | > 250 |
| CC(C)(C)c1nc(C=CC(=O)COc2ccccc2)nc(C(C)(C)C)c1O | 98 to 100 |
| CC(CO)Nc1cc(Oc2nn(C)c(C(F)(F)F)c2Cl)ccc1N (stereo not drawn) | 110 to 112 |
| Cc1nc(-c2ccc3c(c2)OCO3)c2cc3c(cc2n1)OCO3 | 207 to 210 |
| CC(C)n1nc(-c2c(-c3ccccc3)nn3ccc(O)cc23)ccc1=O | > 250 |
| C=CCC1C(OCc2ccccc2)CC(OCc2ccccc2)C1OS(=O)(=O)c1ccc(C)cc1 (single isomer, unassigned; (-)) | 57 to 58 |
| O=C1NCN(c2ccccc2)C12CCCCC2 | 193 to 195 |
| CCOC(=O)C(CCCCCCN1C(=O)c2ccccc2C1=O)(NC(C)=O)C(=O)OCC | 68.5 to 70 |
| COc1nc(-c2ccccc2)n(Cc2ccc(-c3ccccc3S(N)(=O)=O)cc2)c1C=O | 188 |
| CC(C)(C)CCN1C(=O)C(N)C(=O)N(c2ccccc2F)c2ccccc21 (stereo not drawn) | 98 to 100 |
| N#Cc1sc(N2CCCC2)nc1N | 305 to 308 |
| CC(C(=O)NC1Cc2ccccc2CC1O)c1ccccc1 (stereo not drawn) | 158 |
| O=C(O)c1ccc(NCCCCOc2ccccc2)cc1 | 153 to 155 |
| CN(C)c1cc(Oc2cccc(C(F)(F)F)c2)nc(C(=O)Nc2ccccc2)c1 | 135 to 138 |

Second part, the compound after the results:

| melting point [°C] | Structure (SMILES) |
| --- | --- |
| 176 to 177 | Clc1cc2nnnn2c2cnccc12 |
| 212 to 216 | O=C1CCC(=O)N1c1ccc(N2CCN(c3ccc(OCC(O)(Cn4cncn4)c4ccc(Cl)cc4Cl)cc3)CC2)cc1 (stereo not drawn) |
| 197 to 199 | CCOC(=O)c1ccc(C(=O)Nc2ccc3c(c2)C(C)(C)CC(=O)N3C)cc1 |
| 54 | CCCCCCCCCCCCc1ccc(NC)c([N+](=O)[O-])c1 |
| 180 to 183 | CCCCc1c(C(=O)N(C)Cc2ccc3c(Br)c(OCc4nnn[nH]4)ccc3c2)oc2ccccc12 |
| 173 | N#CC1(C#N)C2C=CC(C2)C1(Cl)C(F)(F)F (stereo not drawn) |
| 207 to 208 | CC(C)(C)NC(=O)c1cc(C(C)(C)C)c(O)c(C(C)(C)C)c1 |
| 102 to 104 | O=C1c2cccc(Br)c2C(=O)N1CCCCCn1cncn1 |
| 235 to 237 | Cc1nc(-c2ccc(NC(=O)CCCC(=O)Nc3ccc(-c4noc(C)n4)cc3)cc2)no1 |
| 66 to 68 | CCCCCCCCCC(O)CCc1ccc(O)c(OC)c1 (stereo not drawn) |
| 148 to 150 | CN(C)C1CCN(c2nc(N3CCOCC3)c3ncnc(NCc4ccccc4)c3n2)CC1 |
| 214 to 216 | CC(=O)N(C)c1cc2c(nc(C)n2C)c2c1CCC(c1ccccc1)O2 (stereo not drawn) |
| 76 to 78 | CC1=C(Cl)CC2C(=O)OC(=O)C2C1 (stereo not drawn) |
| 104 to 106 | COc1cc(C)c(NC(=O)OC(C)(C)C)c(C)c1C |
| 142 to 143 | CC(C)CC(N)C(=O)NC(CCCCNC(=O)OC(C)(C)C)C(=O)O (stereo not drawn) (H-Leu-Lys(Boc)-OH; configuration not given here) |
| 169 to 170 | CCN1C(=O)C(C)(C)C(=O)N(C)c2cc(CN(CCn3cc(C)c4oc(C)cc4c3=O)C(C)c3cccnc3C)ccc21 (stereo not drawn) |
| 75 to 76 | CO[C@@H](C(=O)N[C@H]1CC[C@@H](OC(=O)C2CCCC2)CNC1=O)[C@H](O)[C@@H](O)[C@H](O)/C=C/C(C)(C)C |
| 184 to 185 | CCCOc1ccc(C=CC(=O)N2CCN(C)CC2)cc1-c1nc2c(C)cccc2c(=O)[nH]1 |
| 111 to 112 | c1nnc(N2CCN(Cc3ccc4c(c3)OCO4)CC2)s1 |
| > 250 | Cn1ncc(C(=O)NC2COC2)c1C(=O)Nc1ccn2nc(-c3ccccc3)nc2c1 |
| 55 to 64 | CC(CCn1ccnc1)N=C1c2cccc3cccc(c23)N1C(c1ccccc1)c1ccccc1 (stereo not drawn) |
| 153 to 154 | CCOC(=O)C(=O)Nc1c([N+](=O)[O-])cc(Br)c2c1CN(C)C2 |
| 253 to 254 | CC(=O)c1ccc2c(c1)ncn2-c1cccc(-c2cncnc2)c1 |

| melting point [°C] | Structure (SMILES) |
| --- | --- |
| 146 to 148 | CC(C)(C)NC(=O)c1ccc(C(F)(F)F)cc1 |
| 68 to 69 | Cc1nnc(CNc2c(C)cccc2C)s1 |
| 192 to 194 | Cc1nnc2ccc(-c3ccc(Cl)cc3)cn12 |
| 235 to 255 | COc1ccc(-c2ccc(C(N)=O)cc2)cc1-c1ccc2nonc2c1 |
| 169 to 170 | CC1(C)[C@@H]2CC3[C@H](C(=O)NCC(N)=O)[C@@]3(C)C[C@@H]21 (stereo partly drawn) |
| 82 to 85 | COc1cnn(-c2cccc(COc3ccccc3)c2)c(=O)c1OC |
| 180 to 182 | CCN(CC)c1ccc(C(=O)C#Cc2ccncn2)cc1 |
| 248 to 255 | C(=C\c1cc(/C=C/c2ccccc2-c2cccnc2)[nH]n1)/c1ccc2cc[nH]c2c1 |
| 219 to 221 | CNc1nc(-c2cccc(NC(=O)c3ccc(OC)cc3)c2)c2cc(OC)c(OC)cc2n1 |
| 180 to 181 | O=C(O)CCc1cnc2ccccc2c1 |
| 91 to 93 | O=C(c1ccccc1)C1CCN(Cc2cncc(-c3ccccc3)c2)CC1 |
| 107 to 108 | CCCc1nnc(/C=C/c2cc(OCc3ccc(OCc4nc(-c5ccco5)oc4C)c(OC)c3)nn2-c2ccccc2)o1 |
| 118 to 119 | CCc1c(OC)nc(OC)nc1C(=O)c1cc(Cl)cc(Cl)c1 |
| 305 | Cc1nc2c(s1)C=Cc1cc(Cl)ccc1C2c1cn(C)c(=O)[nH]c1=S (stereo not drawn) |
| 6 to 8 | O=C(O)C(Oc1ccccc1)(C(F)(F)F)C(F)(F)F |
| 178 to 180 | CC(=O)c1c(SSc2c(C(C)=O)c3ccccc3n2C)n(C)c2ccccc12 |
| 184 to 185 | O=C(NCc1ccc(Cl)cc1)c1cnc2ccc(CC3CCOCC3)cc2c1O |
| 111 to 113 | CCOC(=O)c1cnc2nn(CC)cc2c1OCC |
| 196 to 197 | CCOC(=O)c1c(N)nn(-c2c(Cl)cc(C(F)(F)F)cc2Cl)c1N |
| 217 to 219 | Cn1c(=O)sc2cc(N3C[C@H](C(=O)NCCO)OC3=O)ccc21 |
| 206 to 208 | O=C1C=C(O[C@@H]2c3cc([N+](=O)[O-])ccc3OC(CF)(CF)[C@H]2O)CC1 (relative stereo) |
| 145 to 153 | COc1cc2c(c(C(=O)O)c1OC)CCN(Cc1ccccc1)CC2c1ccccc1 (stereo not drawn) |
| 163 | CCc1ccc(S(=O)(=O)NCc2ccccc2-c2ccccc2C(=O)NCCc2ccccc2)cc1 |
